Structures are written as SMILES.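 Test compounds were applied to cells in 96-well plates for 48 hours at 5 doses. GI50 marks 50% less growth.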 The source made the active and inactive calls. Cut-off read from the data, not from the text of the source: active = GI50 up to about 1.1 µM and inactive = higher. Bounds are passed on as bounds.

Among the test systems are 786-0; BT-549; HOP-62; IGROV-1; KM12; LOX IMVI; M14; MDA-MB-435; MOLT-4; NCI-H460; PC-3; RPMI-8226; SN12C; SR; SW-620; T47D; TK-10; U-251; UO-31.
What all share (assay): NCI anticancer screen, dose series, 48 h

For the compound `CSc1ncc2c(C#N)c3[nH]c4ccccc4n3c(=O)c2n1`, the GI50 is 31.7 µM (inactive) with 786-0; 20.6 µM (inactive) in the assay on BT-549; 19.8 µM (inactive) in the assay on HOP-62; 18.1 µM (inactive) in the assay with IGROV-1; 8.63 µM (inactive) in the assay with KM12; 21.7 µM (inactive) with LOX IMVI. The GI50 in the assay on M14 was 16.7 µM (inactive); in the assay on MDA-MB-435, 16.9 µM (inactive); in the assay with MOLT-4, 4.28 µM (inactive); in the assay with NCI-H460, 13.3 µM (inactive); in the assay with PC-3, 5.83 µM (inactive); in the assay with RPMI-8226, 1.88 µM (inactive). Moreover, the GI50 in the assay with SN12C was 16 µM (inactive); with SR, 9.89 µM (inactive); in the assay with SW-620, 23.6 µM (inactive); in the assay with T47D, 22.9 µM (inactive); with TK-10, 31.5 µM (inactive); in the assay on U-251 it was 15.8 µM (inactive). Moreover, the GI50 in the assay on UO-31 was 8.13 µM (inactive).

As to `C[C@H](CCC(=O)O)[C@H]1CC[C@H]2[C@@H]3C(=O)C[C@@H]4C[C@H](O)CC[C@]4(C)[C@H]3C[C@H](O)[C@]12C`, the GI50 in the assay on 786-0, in the assay on BT-549, with HOP-62, in the assay with IGROV-1, with KM12 and with LOX IMVI was > 100 µM (inactive) each time. Besides, the GI50 with M14, with MDA-MB-435, in the assay with MOLT-4, in the assay with NCI-H460, in the assay on PC-3 and in the assay on RPMI-8226 was > 100 µM (inactive) throughout. The GI50 in the assay with SN12C, in the assay on SR, with SW-620, in the assay on T47D, in the assay on TK-10 and with U-251 was > 100 µM (inactive) throughout. In addition, the GI50 in the assay on UO-31 is > 100 µM (inactive).

As to `Cc1ccc(C)c2c1C/C(=C\c1ccccc1C(=O)O)C2=O`, the GI50 with 786-0 is > 100 µM (inactive); in the assay on BT-549 it was > 100 µM (inactive); in the assay on HOP-62 it was > 100 µM (inactive); in the assay on IGROV-1, > 100 µM (inactive); with KM12 it was > 100 µM (inactive); in the assay with LOX IMVI, 54.2 µM (inactive). For the same compound, the GI50 is > 100 µM (inactive) in the assay with M14; 67.5 µM (inactive) in the assay with MDA-MB-435; 86.9 µM (inactive) in the assay on MOLT-4; > 100 µM (inactive) in the assay on NCI-H460; > 100 µM (inactive) with PC-3; 27.7 µM (inactive) in the assay on RPMI-8226. Moreover, the GI50 in the assay on SN12C is > 100 µM (inactive); in the assay with SR it was 36.1 µM (inactive); in the assay on SW-620, > 100 µM (inactive); in the assay with T47D, > 100 µM (inactive); in the assay on TK-10, > 100 µM (inactive); in the assay with U-251 it was 88.3 µM (inactive). In addition, the GI50 in the assay with UO-31 was > 100 µM (inactive).

With `CO[C@H]1C[C@H](O[C@H]2CC[C@]3(C=O)[C@H]4CC[C@]5(C)[C@@H](C6=CC(=O)OC6)CC[C@]5(O)[C@@H]4CC[C@]3(O)C2)O[C@H](C)[C@H]1O` [CYMARIN], the GI50 in the assay with 786-0 was 0.137 µM (active); in the assay on BT-549, 0.207 µM (active); in the assay on HOP-62, 0.114 µM (active); in the assay with IGROV-1, 0.448 µM (active); with KM12 it was 0.402 µM (active); in the assay on LOX IMVI it was 0.184 µM (active). Moreover, the GI50 is 0.528 µM (active) with M14; 0.344 µM (active) in the assay with MDA-MB-435; 0.0883 µM (active) in the assay with MOLT-4; 0.112 µM (active) with NCI-H460; 0.203 µM (active) with PC-3; 0.27 µM (active) in the assay with RPMI-8226. Moreover, the GI50 in the assay with SN12C was 0.042 µM (active); in the assay with SR, 0.409 µM (active); in the assay with SW-620 it was 0.243 µM (active); in the assay with T47D, 0.384 µM (active); with TK-10, 0.167 µM (active); with U-251, 0.314 µM (active). Also, in the assay on UO-31, the GI50 was 0.308 µM (active).

With `COC(=O)CCCc1nc2ccccc2nc1/N=N/c1ccccc1`, the GI50 in the assay on 786-0 was 38.1 µM (inactive); with BT-549, 53.7 µM (inactive); in the assay on HOP-62, 52.5 µM (inactive); in the assay on IGROV-1, 25.5 µM (inactive); with KM12, 37.1 µM (inactive); with LOX IMVI, 16.6 µM (inactive). In addition, the GI50 in the assay on M14 is 27.6 µM (inactive); in the assay with MDA-MB-435, 58.7 µM (inactive); in the assay on MOLT-4, 9.93 µM (inactive); in the assay with NCI-H460 it was 49.8 µM (inactive); in the assay with PC-3, 39.5 µM (inactive); in the assay with RPMI-8226, 22.9 µM (inactive). For the same compound, the GI50 in the assay with SN12C is 51.5 µM (inactive); in the assay with SR, 20.8 µM (inactive); in the assay on SW-620, 47.5 µM (inactive); with T47D, 45.7 µM (inactive); in the assay on TK-10, > 100 µM (inactive); in the assay with U-251 it was 53.6 µM (inactive). Also, in the assay on UO-31, the GI50 is 25.9 µM (inactive).

Consider `O=C1c2c(F)c(F)c(F)c(F)c2SC2=Nc3cccc4cccc(c34)N12`, for which the GI50 with 786-0 was 5.51 µM (inactive); with BT-549, 10.9 µM (inactive); in the assay with HOP-62, 13.7 µM (inactive); in the assay on IGROV-1, 11.4 µM (inactive); in the assay with KM12, 3.05 µM (inactive); with LOX IMVI, 2.77 µM (inactive). Besides, the GI50 with M14 is 2.92 µM (inactive); in the assay on MDA-MB-435, 4.94 µM (inactive); in the assay with MOLT-4 it was 2.16 µM (inactive); in the assay with NCI-H460, 10 µM (inactive); with PC-3 it was 5.68 µM (inactive); in the assay with RPMI-8226 it was 2.62 µM (inactive). The GI50 in the assay on SN12C is 3.79 µM (inactive); with SR, 2.13 µM (inactive); in the assay on SW-620, 3.29 µM (inactive); in the assay on T47D, 1.56 µM (inactive); in the assay on TK-10, 13.3 µM (inactive); with U-251, 3.78 µM (inactive). In addition, the GI50 in the assay with UO-31 was 9.16 µM (inactive).

As to `O=C1NC(=S)NC(=O)C1=C(O)Nc1ccccc1`, the GI50 was 28.1 µM (inactive) in the assay with 786-0; 12.1 µM (inactive) in the assay with BT-549; 23.2 µM (inactive) in the assay with HOP-62; 32 µM (inactive) in the assay with IGROV-1; 36.6 µM (inactive) in the assay with KM12; 23.3 µM (inactive) in the assay with LOX IMVI. Also, the GI50 with M14 is 36.2 µM (inactive); in the assay on MDA-MB-435, 7.98 µM (inactive); with MOLT-4, 10.3 µM (inactive); in the assay with NCI-H460 it was 22.7 µM (inactive); in the assay on PC-3 it was 15 µM (inactive); with RPMI-8226, 27.4 µM (inactive). The GI50 was 25.8 µM (inactive) in the assay with SN12C; 12.8 µM (inactive) in the assay with SR; 29.2 µM (inactive) in the assay on SW-620; 28.2 µM (inactive) in the assay with T47D; 53.6 µM (inactive) with TK-10; 27.5 µM (inactive) with U-251. The GI50 in the assay with UO-31 is 26.5 µM (inactive).

Turning to `CC(C)(C)OC(=O)c1ccc(NCC2=C(Br)C(=O)C=CC2=O)cc1`, the GI50 was 17.5 µM (inactive) in the assay with 786-0; 11.4 µM (inactive) in the assay with BT-549; 37 µM (inactive) in the assay with HOP-62; 24.2 µM (inactive) in the assay on IGROV-1; 33.3 µM (inactive) with KM12; 14.7 µM (inactive) with LOX IMVI. Further, the GI50 in the assay on M14 is 27.5 µM (inactive); in the assay with MDA-MB-435, 18.8 µM (inactive); in the assay on MOLT-4 it was 1.42 µM (inactive); in the assay with NCI-H460, 36.3 µM (inactive); with PC-3, 27.4 µM (inactive); with RPMI-8226 it was 10.3 µM (inactive). For the same compound, the GI50 was 18.7 µM (inactive) with SN12C; 11.7 µM (inactive) in the assay with SR; 16.4 µM (inactive) in the assay with SW-620; 17.5 µM (inactive) in the assay on T47D; 22.1 µM (inactive) in the assay with TK-10; 22.3 µM (inactive) with U-251. Also, the GI50 in the assay with UO-31 is 14 µM (inactive).

As to `CN(C)CCOc1ccc2[nH]c(C(=O)N3CC(CCl)c4ccc(N)cc43)cc2c1` (stereo not given), the GI50 in the assay with 786-0 is 0.0687 µM (active); in the assay with BT-549, 0.192 µM (active); in the assay on HOP-62, 0.0356 µM (active); in the assay with IGROV-1 it was 0.0395 µM (active); in the assay with KM12 it was 0.0733 µM (active); in the assay on LOX IMVI, 0.0601 µM (active). Also, the GI50 in the assay on M14 is 0.145 µM (active); with MDA-MB-435, 0.0871 µM (active); in the assay with MOLT-4, < 0.01 µM (active); with NCI-H460 it was 0.0273 µM (active); in the assay on PC-3 it was 0.0459 µM (active); in the assay on RPMI-8226, 0.228 µM (active). For the same compound, the GI50 in the assay on SN12C was 0.108 µM (active); in the assay on SR it was < 0.0179 µM (active); with SW-620, 0.121 µM (active); in the assay with T47D it was 0.0424 µM (active); in the assay with TK-10, 0.29 µM (active); in the assay on U-251, 0.0912 µM (active). Besides, the GI50 in the assay with UO-31 was 0.065 µM (active).

Regarding `COc1cccc2c(=O)c3c(n(C)c12)OC(C(C)C)C3` (stereo not given), the GI50 is > 100 µM (inactive) with 786-0; > 100 µM (inactive) in the assay with BT-549; > 100 µM (inactive) with HOP-62; 42.6 µM (inactive) with IGROV-1; 99.5 µM (inactive) in the assay on KM12; > 100 µM (inactive) in the assay with LOX IMVI. Besides, the GI50 with M14 was > 100 µM (inactive); in the assay on MDA-MB-435, > 100 µM (inactive); with MOLT-4, 16.9 µM (inactive); in the assay on NCI-H460, 52.1 µM (inactive); with PC-3 it was > 100 µM (inactive); in the assay on RPMI-8226 it was 46.7 µM (inactive). Moreover, the GI50 with SN12C was > 100 µM (inactive); in the assay with SR, 30.8 µM (inactive); with SW-620, > 100 µM (inactive); with T47D it was 87.3 µM (inactive); with TK-10, > 100 µM (inactive); in the assay with U-251, > 100 µM (inactive). Also, the GI50 with UO-31 was 40.7 µM (inactive).
